Results taken from PubChem BioAssay (NCI).
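Where inhibition never reached the appropriate level, the endpoint shown equals the highest concentration tested. Otherwise, values were interpolated linearly from a five-concentration, 48-hour dose response in 96-well plates. TGI is the concentration that stops growth completely.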 Where a SMILES comes first, the peptide text is derived from it. The star is where a group is joined. Boc = CC(C)(C)OC(=O)*; OBn = c1ccc(CO*)cc1

How the values were obtained:
Assay in all cases: NCI anticancer screen, dose series, 48 h
HCT-15 colon = system: HCT-15 colon
DU-145 prostate = system: DU-145 prostate
UO-31 renal = system: UO-31 renal
SNB-19 CNS = system: SNB-19 CNS
MCF7 breast = system: MCF7 breast
OVCAR-5 ovarian = system: OVCAR-5 ovarian
MDA-MB-231 breast = system: MDA-MB-231 breast
HOP-62 NSCLC = system: HOP-62 NSCLC
OVCAR-4 ovarian = system: OVCAR-4 ovarian
A498 renal = system: A498 renal
HL-60(TB) leukemia = system: HL-60(TB) leukemia

Structure (SMILES)	TGI (HCT-15 colon) [µM]	TGI (DU-145 prostate) [µM]	TGI (UO-31 renal) [µM]	TGI (SNB-19 CNS) [µM]	TGI (MCF7 breast) [µM]	TGI (OVCAR-5 ovarian) [µM]	TGI (MDA-MB-231 breast) [µM]	TGI (HOP-62 NSCLC) [µM]	TGI (OVCAR-4 ovarian) [µM]	TGI (A498 renal) [µM]	TGI (HL-60(TB) leukemia) [µM]
NC(CCC(=O)O)(CCC(=O)O)CCC(=O)O	> 100	> 100	> 100	> 100	> 100	> 100	> 100	–	–	–	–
COc1ccc(-c2cc(=O)c3cc4c(cc3[nH]2)OCO4)cc1	> 100	–	> 100	> 100	–	–	–	> 100	> 100	> 100	> 100
COc1cccc2nc3cc(C)c(C)cc3nc12	> 100	–	> 100	> 100	–	> 100	–	> 100	> 100	> 100	> 100
Cc1ccc(-c2c(C#N)c(N)nc3c2CCS(=O)(=O)c2ccccc2-3)cc1	> 100	> 100	> 100	> 100	–	–	> 100	–	> 100	> 100	–
CC(=O)O[C@H]1CCn2c3c(c(C)c21)C(=O)C(N1CC1)=C(C)C3=O	> 10	> 10	–	> 10	> 10	> 10	> 10	> 10	> 10	–	> 10
NNCCc1n[nH]c(=O)n1N	> 100	> 100	> 100	> 100	> 100	> 100	> 100	> 100	> 100	–	> 100
CC(NC(=O)C(Cc1ccccc1)NC(=O)C(Cc1ccccc1)NC(=O)OC(C)(C)C)C(=O)OCc1ccccc1 (stereo not drawn) (Boc-Phe-Phe-Ala-OBn; configuration not given here)	–	> 100	> 100	–	> 100	> 100	> 100	> 100	–	> 100	> 100
C=CCCCC1CCCNC1=S (stereo unspecified)	> 100	> 100	> 100	> 100	> 100	> 100	> 100	> 100	> 100	> 100	–
O=C1CCCCC/C1=C\c1ccc(Cl)cc1	> 100	> 100	> 100	> 100	–	> 100	> 100	> 100	84.9	> 100	–
CC(C)(C)[Si](C)(C)OCCOCn1cc(F)c(=O)[nH]c1=O	> 100	> 100	> 100	> 100	> 100	> 100	–	> 100	> 100	> 100	> 100
Cc1ccc2c(c1)-c1c(C#N)c(N)nc(-c3ccccc3)c1CCS2(=O)=O	> 100	> 38.9	97	> 46.9	> 100	> 100	> 100	> 100	> 100	> 80.2	–
CC(C)C12C=CC(C)(CC1)n1c(=O)c3cc4ccccc4cc3c(=O)n12 (stereo unspecified)	> 100	–	96.6	> 100	–	> 100	–	> 100	> 100	79.1	> 100
CC(C)C1COC(c2cccc(C3=N[C@@H](C(C)C)CO3)n2)=N1 (stereo partly specified)	> 100	–	> 100	> 100	–	> 100	–	> 100	> 100	> 100	> 100
CC12c3c4cc(Br)cc3Oc3cc(Br)cc(c31)Oc1cc(Br)cc(c12)O4	> 100	49.1	> 100	> 100	> 100	> 100	59.3	> 100	> 100	–	–
O=c1c2cn[nH]c2nc2scc(-c3ccc(Cl)cc3)n12	> 100	–	> 100	> 100	> 100	> 100	> 100	> 100	> 100	–	–
CC(C)CCc1n[nH]c(=O)n1/N=C\c1ccccc1	> 100	> 100	86.1	> 100	–	> 100	> 100	> 100	> 100	> 100	–
Clc1nc(NCCc2ccccc2)c2ncn(-c3ccccc3)c2n1	> 100	83.4	43.1	> 100	60.8	> 100	62.8	67.2	42.1	41.9	–
O=C(Cc1ccccc1)NCCCN(CCCCN(CCCNC(=O)Cc1ccccc1)C(=O)OCc1ccccc1)C(=O)OCc1ccccc1	> 100	> 100	6.42	–	> 100	> 100	> 100	> 100	> 28.6	> 100	–
O=C1NC(=O)C(COCc2ccccc2)C2=C1SCCC2 (stereo unspecified)	> 100	> 100	> 100	> 100	> 100	–	> 100	> 100	> 100	> 100	> 100
CCC(=O)N(O)C(C)(C)C	> 100	–	> 100	> 100	–	> 100	–	> 100	> 100	–	> 100
O=c1oc2c(ccc3ccccc32)cc1C1=CSC2=NCCN12	> 100	75.1	> 100	> 100	67.8	–	> 100	> 100	> 100	–	> 100
O=S(=O)(O)c1ccc2c(N=Nc3ccc(F)cc3)c(O)c(S(=O)(=O)O)cc2c1	> 100	> 100	> 100	> 100	–	> 100	> 100	> 100	> 100	> 100	–
COc1cc2c(cc1OC)C(C)N(C)c1c-2c(OC(C)=O)cc2cc(OC)c(OC)cc12 (stereo unspecified)	> 81.2	40.8	> 92.1	> 100	40.2	> 100	27.9	> 79.7	> 45.4	> 52.9	–
